# Experimental data published in US5871779A, “Treatment of arthropathies with vanadate compounds or analogues thereof” (Mount Sinai Hospital Corporation, priority 1996, dated 1999).
# “Also recorded” adds a separate entry of the source.
# Key:
# fos = fos / c-fos mRNA expression in chondrocytes (Northern blot); type: cell-based, bovine; settings: in the presence of IL 1; N-acetylcysteine 20 mM for 20 min
# Description: (§1) The cytokine interleukin 1 (IL 1) has been used to identify the intermediate second messengers which regulate the expression of fos and jun.
# In order to elucidate this possibility, the effect of DPI on fos and jun mRNA levels induced by IL 1 was investigated. RNA from chondrocytes treated with IL 1 in the presence and absence of DPI were analyzed by Northern blot analysis using either fos or collagenase cDNA probes.
# Since superoxides are rapidly converted to hydrogen peroxide in the cell by superoxide dismutase, whether hydrogen peroxide could mimic the effect of IL 1 in the induction of fos expression was investigated. RNA was extracted from chondrocytes (Kandel et al. supra) treated with H2 O2 for 30, 60 and 90 minutes and examined by Northern blot analysis using a fos cDNA probe.
# Bovine articular chondrocytes were isolated and plated as previously described (Kandel R. A. et al. Biochim. Biophys. Acta. 1053, 130-134, 1990). […] The amount of ^3 H-AA liberated into the supernatant was determined. To measure PGE2 production, chondrocytes were incubated for 6 hours in Ham's F12 medium, either alone or with IL 1 or PMA. […] In order to examine the expression of c-fos and c-jun, chondrocytes were incubated for 1 hour in the presence of IL-1, PMA or AA (3 μM). Chondrocytes were washed in PBS and the total RNA extracted as previously described (Cruz. et al, 1991, Biochem. J. 277, 327-330). RNA samples were run on formaldehyde agarose gels and transferred to nylon membrane for northern analysis using cDNA probes for c-fos and c-jun.
# The RNA was extracted and examined by Northern blot analysis using cDNA probes for c-fos and collagenase.
# collagenase [1] = test: collagenase mRNA expression in chondrocytes (Northern blot); type: cell-based, bovine; settings: in the presence of IL 1; N-acetylcysteine 20 mM for 20 min
# From the text: as §1
# Although IL 1 stimulated superoxide production, it was not known whether IL 1 induced fos and jun expression was dependent on the production of superoxides. In order to elucidate this possibility, the effect of DPI on fos and jun mRNA levels induced by IL 1 was investigated. RNA from chondrocytes treated with IL 1 in the presence and absence of DPI were analyzed by Northern blot analysis using either fos or collagenase cDNA probes. […] Similar data has been obtained for IL 1 induced jun expression. Furthermore, inhibition of fos and jun expression by DPI was sufficient to suppress IL 1 induced and constitutive collagenase expression.
# Cells were also incubated as described above with 20 mM N-acetylcysteine for 20 min. and then incubated with IL 1 for an additional 1 or 12 hours. The RNA was extracted and examined by Northern blot analysis using cDNA probes for c-fos and collagenase. N-acetylcysteine which is converted to GSH intracellularly was also found to reduce the levels of fos and collagenase expression in response to IL 1 (FIG. 5). Presumably the higher intracellular levels of GSH reduced H2 O2 and superoxide levels and suppressed the induction of fos and collagenase expression.
# collagenase [2] = test: collagenase production by chondrocytes (ELISA); type: cell-based, bovine; settings: summary statement
# Description: The effect of orthovanadate and N-acetylcysteine on fos, jun and collagenase expression were examined. Bovine articular chondrocytes were isolated and plated as previously described (Kandel R. A. et al. Biochim. Biophys. Acta. 1053, 130-134, 1990). In order to determine the effect of orthovanadate on IL 1 and PMA (phorbol ester) induced responses, chondrocytes were incubated with orthovanadate (100 μM) for 2 hours before stimulation with IL 1 (10 ng/ml) or PMA ([…]). Collagenase production was determined by incubating chondrocytes for 24 hours with IL 1 or PMA and the cell conditioned medium was assayed for collagenase activity using an ELISA procedure as described previously (Kandel et al. supra). PLA2 activity was measured by incorporating ^3 H-arachidonic acid (^3 H-AA) into the cells and then incubating the cells with medium containing 1 mg/ml BSA, either alone or in the presence of IL 1 or PMA, for 10 min. as previously described (Conquer, J. A. […], Biochim. Biophys. Acta. 1134, 1-6). The amount of ^3 H-AA liberated into the supernatant was determined. To measure PGE2 production, chondrocytes were incubated for 6 hours in Ham's F12 medium, either alone or with IL 1 or PMA. The supernatant was analyzed by RIA using an antibody specific for PGE2 (Dr. S. A. Jones, Mount Sinai Hospital, Toronto, Canada). In order to examine the expression of c-fos and c-jun, chondrocytes were incubated for 1 hour in the presence of IL-1, PMA or AA (3 μM). Chondrocytes were washed in PBS and the total RNA extracted as previously described (Cruz. et al, 1991, Biochem. J. 277, 327-330). RNA samples were run on formaldehyde agarose gels and transferred to nylon membrane for northern analysis using cDNA probes for c-fos and c-jun.
# c-fos = test: TNFα and bFGF induced c-fos mRNA in chondrocytes (Northern blot); type: cell-based, bovine; settings: 30 mM, 2 hours preincubation
# Description: Chondrocyte cultures were stimulated with H2 O2 (100 μM) at different time points as indicated. […] Chondrocyte cultures were preincubated with NAC (30 mM) or Asc (100 μM) for 2 hours before the addition of bFGF (10 ng/ml) or TNFα (30 ng/ml) for 30 minutes. Both human recombinant TNFα and bFGF were dissolved in phosphate buffered saline with 0.1% bovine serum albumin. NAC and Asc were first dissolved in Ham's F12 medium containing 5% (v/v) fetal bovine serum, then neutralized with sodium hydroxide. Total RNA from bovine articular chondrocytes was isolated and the c-fos mRNA levels were determined by Northern blot analysis as described herein. The blots were subsequently stripped of DNA and re-probed with ^32 p-labelled rat β tubulin cDNA.
# Chondrocyte cultures were pretreated with DPI (2 μM) for 30 minutes before the addition of TNFα (30 ng/ml) or bFGF (10 ng/ml) for 30 minutes. Measurements of c-fos and tubulin mRNA levels were as described in Example 11.
# tumor growth = tumor growth in vivo, orthovanadate and N-acetylcysteine (Example 7); design: species or system mice; settings: combination with orthovanadate
# Description: Since N-acetylcysteine is converted to glutathione in cells, higher levels of glutathione may not only reduce orthovanadate induced toxicity but may also reduce tumor formation.
# Twenty mice were injected subcutaneously with 2×10^5 cells on Day 1. At day 4, the mice were divided into four groups of five mice. Group one (control) received subcutaneous injections of 50 μl of water. Group two received daily intraperitoneal injections of 50 μl of 250 mM N-acetylcysteine. Group three received daily subcutaneous injections of 50 μl of 10 mg/ml of orthovanadate. Group four received daily intraperitoneal injections of 50 μl of […] N-acetylcysteine and 20 minutes later received 50 μl of subcutaneous injection of 50 μl of 10 mg/ml of orthovanadate. On day 10 the treatment was stopped. The animals were sacrificed on Day 13 and analyzed for tumor growth.
# [3] = tested on: collagen induced arthritis; test: collagen induced arthritis, clinical arthritis score; type: in vivo, rats; settings: NAC 100 mg/kg/day s.c.; listed as NAC
# Description: Syngeneic 8 week old female Louvain (LOU) rats were fed with standard lab chow and housed in the vivarium at the University of California, Los Angeles. […] E. et al., J. Exp. Med., 146: 857-868, 1977). […] Rats with definite arthritis on Day 10 post immunization were randomized into two groups. Control rats (n=8) received only NAC at a dose of 100 mg/kg/day s.c. NAC was prepared as a 3% aqueous solution. […] Clinical arthritis severity of each limb was scored daily based on an objective integer scale of 0-4 (Trentham, D. E. et al., J. Exp. Med., 146: 857-868, 1977). A score of 0 indicated an unaffected limb, while a score of 4 represented fulminant erythema and edema involving distal digits. The arthritic index of a rat is defined as the sum of its four limb scores. Since CIA typically involves only the hind limbs, an arthritic index of 6 to 8 is considered severe arthritis.
smiles,measurement,setting,value
CC(=O)N[C@@H](CS)C(=O)O [N-acetylcysteine],IL 1 induction of fos,fos,reduce
same,IL 1 induction of collagenase,collagenase [1],reduce
same,"production of metalloproteases, such as collagenase",collagenase [2],inhibit
same,inhibition of TNFα and bFGF induced c-fos mRNA levels,c-fos,inhibit
same,toxic effects observed with orthovanadate alone,tumor growth,reduce the slight toxic effects
same,"arthritis development / clinical severity, NAC alone",[3],developed severe arthritis; also recorded: no appreciable effect
